Test results published in US8129345B2, “MUC1-IκB kinase complexes and their activities” (Dana-Farber Cancer Institute, Inc., priority 2006, dated 2012).

Columns and labels:
IKKβ = IKKβ (Homo sapiens, UniProt O14920); assay: In vitro incubation of IKKβ and IKKγ with ATP, phospho-IKKβ-Ser-181 immunoblot; assay type: biochemical; settings: MUC1 protein added to the reaction
Experimental: FIG. 13 is a series of photographs of immunoblots. GST, and GST-IKKγ fusion proteins bound to glutathione beads were incubated with MUC1-CD, MUC1-CD(mSRM), or IKKβ proteins as indicated. The GST-pull down precipitates were immunoblotted (IB) with antibodies specific for (from top to bottom) phosphor-IKKβ-Ser-181 (first panel), IKKγ (second panel), IKKβ (third panel), or MUC1 (fourth panel) as indicated. The molecular weights of proteins (as indicated on the left of the photographs) are expressed as kilodaltons (kDa).

ZR-75-1/MUC1siRNA cells = assay: Expression of Flag-tagged MUC1-CD in ZR-75-1/MUC1siRNA cells; assay type: cell-based, Human; settings: compared to empty vector
Experimental: (§1) FIG. 9A is a pair of photographs of immunoblots. ZR-75-1/MUC1siRNA cells were transfected with the empty pIRES-puro2 vector or a pIRES-puro2-Flag-MUC1-CD vector. Lysates were prepared from the cells and subjected to SDS-PAGE and immunoblotting using antibodies specific to MUC1-C or β-actin as a control. The molecular weights of proteins (as indicated on the left of the photographs) are expressed as kilodaltons (kDa).
as §1, with “FIG. 9B” for “FIG. 9A”, “to immunoprecipitation” for “to SDS-PAGE and immunoblotting”, “to IKKγ. Immunoprecipitates were immunoblotted using antibodies specific for IKKβ” for “to MUC1-C”, “or IKKγ” for “or β-actin”, “as indicated.” for “as a control.”
as §1, with “9C” for “9A”, “immunoprecipitation” for “SDS-PAGE and immunoblotting”, “for IKKβ. Immunoprecipitates were immunoblotted using antibodies specific for phospho-IKKβ-ser-181” for “to MUC1-C”, “IKKβ” for “β-actin”, “indicated.” for “a control.”
FIG. 9D is a pair of photographs of immunoblots. Cytosolic fractions were prepared from ZR-75-1/MUC1siRNA cells transfected with the empty pIRES-puro2 vector or a pIRES-puro2-Flag-MUC1-CD vector. Lysates were immunoblotted with anti-phospho-IκBα and anti-IκBα antibodies where indicated. The molecular weights of proteins (as indicated on the left of the photographs) are expressed as kilodaltons (kDa).
FIG. 9E is a photograph of an immunoblot. Nuclear fractions were prepared from ZR-75-1/MUC1siRNA cells transfected with the empty pIRES-puro2 vector or a pIRES-puro2-Flag-MUC1-CD vector and subjected to immunoblotting with antibodies specific for NF-κB or lamin B as a control. As a further control for the quality of nuclear fractionation, immunoblotting for IκBα was performed using antibodies specific for IκBα. The molecular weights of proteins (as indicated on the left of the photographs) are expressed as kilodaltons (kDa).
Subcellular fractionation. Nuclear and cytosolic fractions were prepared as described in Kharbanda et al. (1996) Cancer Res. 56:3617-3621.
Immunoprecipitation and immunoblotting. Lysates from subconfluent cells were prepared as described in Ren et al. (2004) Cancer Cell 5:163-175. […] The immune complexes were detected with horseradish peroxidase-conjugated secondary (anti-IgG) antibodies (Amersham Biosciences) and enhanced chemiluminescence (ECL; Amersham Biosciences). […]

Chain of IKKβ (O14920 whole entry, the tested form may be a part): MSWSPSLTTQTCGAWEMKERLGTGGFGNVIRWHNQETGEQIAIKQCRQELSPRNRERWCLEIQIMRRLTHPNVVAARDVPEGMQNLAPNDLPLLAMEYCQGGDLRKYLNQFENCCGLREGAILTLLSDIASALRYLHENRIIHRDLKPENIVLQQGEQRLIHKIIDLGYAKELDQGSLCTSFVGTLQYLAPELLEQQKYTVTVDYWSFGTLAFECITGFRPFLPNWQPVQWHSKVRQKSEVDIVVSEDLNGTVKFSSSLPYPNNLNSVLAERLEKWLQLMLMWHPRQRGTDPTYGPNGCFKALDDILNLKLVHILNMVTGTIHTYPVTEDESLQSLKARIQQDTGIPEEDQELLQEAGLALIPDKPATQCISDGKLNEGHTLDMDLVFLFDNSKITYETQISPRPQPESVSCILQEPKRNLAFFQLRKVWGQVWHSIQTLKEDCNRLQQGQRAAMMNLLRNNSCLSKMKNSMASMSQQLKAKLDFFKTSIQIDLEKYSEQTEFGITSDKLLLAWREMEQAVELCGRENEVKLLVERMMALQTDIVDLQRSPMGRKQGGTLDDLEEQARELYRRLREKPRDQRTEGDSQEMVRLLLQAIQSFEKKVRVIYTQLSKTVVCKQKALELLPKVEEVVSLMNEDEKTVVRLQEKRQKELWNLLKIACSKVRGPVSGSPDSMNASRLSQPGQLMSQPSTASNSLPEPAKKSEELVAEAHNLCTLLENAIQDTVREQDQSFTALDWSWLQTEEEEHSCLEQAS
Chain of IKKβ (Q9Y6K9 whole entry partner, the tested form may be a part): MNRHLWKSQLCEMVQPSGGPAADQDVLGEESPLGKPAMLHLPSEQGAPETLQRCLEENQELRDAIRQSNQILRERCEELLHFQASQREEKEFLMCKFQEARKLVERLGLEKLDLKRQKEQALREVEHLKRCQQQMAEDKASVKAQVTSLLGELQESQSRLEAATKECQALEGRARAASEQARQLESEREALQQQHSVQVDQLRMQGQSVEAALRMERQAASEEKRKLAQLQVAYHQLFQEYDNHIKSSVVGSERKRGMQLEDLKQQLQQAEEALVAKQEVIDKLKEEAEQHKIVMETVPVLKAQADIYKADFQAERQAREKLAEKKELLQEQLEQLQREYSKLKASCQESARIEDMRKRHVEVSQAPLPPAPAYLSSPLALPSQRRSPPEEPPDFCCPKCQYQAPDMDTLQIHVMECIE

extent of IKKβ phosphorylation on Ser-181 (IKKβ): increased significantly
Substance: MUC1-CD: 72 amino acid cytoplasmic domain of human MUC1, SEQ ID NO:2
IKKβ-IKKγ complex formation (ZR-75-1/MUC1siRNA cells): increases in IKKβ-IKKγ complex formation
phosphorylation of IKKβ on Ser-181 (ZR-75-1/MUC1siRNA cells): increased phosphorylation
phosphorylation of IκBα (ZR-75-1/MUC1siRNA cells; cytosolic fractions): increased phosphorylation
targeting of NF-κB p65 to the nucleus (ZR-75-1/MUC1siRNA cells; nuclear fractions): increased targeting of NF-κB p65 to the nucleus
